From ChEMBL document CHEMBL1201862, “PubChem BioAssay data set” (2004)
Calls of active or inactive are those of the source.

Legend:
[1] = molecular target: T1, Lysine-specific demethylase 4C (Homo sapiens, UniProt Q9H3R0); test: inhibition of JMJD2C H3K9me3 demethylation – biochemical, DELFIA europium, cherry-picked samples, dose response (AID 488835); type: functional
T1 sequence (Q9H3R0 whole entry): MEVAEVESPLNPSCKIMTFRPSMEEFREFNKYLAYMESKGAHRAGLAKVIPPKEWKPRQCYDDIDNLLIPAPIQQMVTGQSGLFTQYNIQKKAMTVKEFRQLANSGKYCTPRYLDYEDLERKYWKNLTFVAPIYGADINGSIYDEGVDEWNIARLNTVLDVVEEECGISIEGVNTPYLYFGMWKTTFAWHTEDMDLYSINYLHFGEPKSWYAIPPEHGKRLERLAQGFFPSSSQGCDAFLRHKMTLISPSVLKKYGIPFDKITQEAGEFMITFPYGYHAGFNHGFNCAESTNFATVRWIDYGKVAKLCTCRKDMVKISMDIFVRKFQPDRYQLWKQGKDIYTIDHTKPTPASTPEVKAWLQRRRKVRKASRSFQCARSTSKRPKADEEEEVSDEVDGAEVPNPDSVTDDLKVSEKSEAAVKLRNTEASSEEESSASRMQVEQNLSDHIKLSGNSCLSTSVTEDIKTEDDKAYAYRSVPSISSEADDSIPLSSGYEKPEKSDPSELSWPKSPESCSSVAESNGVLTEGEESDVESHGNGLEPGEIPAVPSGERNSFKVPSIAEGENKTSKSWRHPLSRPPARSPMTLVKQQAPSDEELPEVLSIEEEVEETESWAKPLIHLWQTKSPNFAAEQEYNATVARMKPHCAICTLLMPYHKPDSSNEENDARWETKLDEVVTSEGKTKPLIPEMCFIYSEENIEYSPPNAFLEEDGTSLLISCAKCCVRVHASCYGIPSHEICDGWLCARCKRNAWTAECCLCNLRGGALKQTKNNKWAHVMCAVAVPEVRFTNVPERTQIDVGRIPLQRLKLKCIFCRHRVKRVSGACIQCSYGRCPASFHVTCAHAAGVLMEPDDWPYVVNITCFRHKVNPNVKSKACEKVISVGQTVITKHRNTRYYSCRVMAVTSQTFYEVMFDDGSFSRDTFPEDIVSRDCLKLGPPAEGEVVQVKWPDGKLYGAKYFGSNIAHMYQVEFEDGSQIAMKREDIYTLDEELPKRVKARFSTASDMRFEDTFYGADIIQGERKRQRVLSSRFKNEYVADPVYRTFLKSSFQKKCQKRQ

INS1 = test: INS-1E survival protection against cytokine death – cell-based, luminescence, retest, dose response (AID 449756); type: functional; details: Rattus norvegicus;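 further: cell death triggered by IL-1 beta plus TNF-alpha plus IFN-gamma mixture; protective hits raise ATP signal compared with cytokine alone wells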
[2] = molecular target: T2, E3 ubiquitin-protein ligase XIAP (Homo sapiens, UniProt P98170); test: Counter Screen using XIAP-Bir3 for Chemical Antagonists of Bir1/2 domains of IAP-family anti-apoptotic proteins. [Related pubchem assays (depositor defined):AID1018, AID1449, AID1514, AID1638, AID1749, AID1750, AID488957, AID488963]
[3] = molecular target: T2, E3 ubiquitin-protein ligase XIAP; test: small molecules displacing peptide from XIAP – biochemical, IAP family, fluorescence polarization (AID 1018); type: functional
[4] = molecular target: Heat shock protein HSP 90-alpha (Homo sapiens, UniProt P07900); type: functional, organism-based
Trypsin = Trypsin (Sus scrofa, UniProt P00761); test: trypsin protease activity blockade – biochemical, quenched peptide fluorescence, cherry-pick, selectivity assay for Rce1 protease inhibitor project, dose response (AID 488789)
[5] = molecular target: T3, Replicative DNA helicase DnaB (Mycobacterium tuberculosis, UniProt P9WMR3); test: DnaB intein splicing inhibitors, dose response, biochemical, cell-free fluorescence (AID 449749); type: functional
T3 sequence (P9WMR3 whole entry): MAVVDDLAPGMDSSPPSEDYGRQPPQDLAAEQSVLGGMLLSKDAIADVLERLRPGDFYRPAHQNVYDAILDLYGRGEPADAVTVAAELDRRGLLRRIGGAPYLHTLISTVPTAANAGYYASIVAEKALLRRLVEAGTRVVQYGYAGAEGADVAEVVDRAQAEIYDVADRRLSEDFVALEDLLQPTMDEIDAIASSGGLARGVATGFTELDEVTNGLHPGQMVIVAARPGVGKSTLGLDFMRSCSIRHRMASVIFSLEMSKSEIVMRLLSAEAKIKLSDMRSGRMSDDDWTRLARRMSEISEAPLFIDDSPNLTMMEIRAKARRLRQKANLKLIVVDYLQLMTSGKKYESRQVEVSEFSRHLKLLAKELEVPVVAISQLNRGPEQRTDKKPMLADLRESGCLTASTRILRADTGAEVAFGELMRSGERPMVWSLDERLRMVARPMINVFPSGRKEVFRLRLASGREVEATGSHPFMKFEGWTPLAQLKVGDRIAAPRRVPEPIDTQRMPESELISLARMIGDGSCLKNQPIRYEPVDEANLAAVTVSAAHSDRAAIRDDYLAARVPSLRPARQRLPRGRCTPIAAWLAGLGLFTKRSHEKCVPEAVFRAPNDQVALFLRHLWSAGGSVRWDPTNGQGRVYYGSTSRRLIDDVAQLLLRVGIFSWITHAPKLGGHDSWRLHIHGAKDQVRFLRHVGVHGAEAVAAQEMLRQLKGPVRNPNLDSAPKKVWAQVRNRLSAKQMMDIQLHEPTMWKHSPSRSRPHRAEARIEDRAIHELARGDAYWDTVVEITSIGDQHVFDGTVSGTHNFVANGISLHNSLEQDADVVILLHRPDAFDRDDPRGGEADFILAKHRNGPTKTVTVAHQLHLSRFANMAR

Protein RecA = molecular target: T4, Protein RecA (Mycobacterium tuberculosis, UniProt P9WHJ3); test: Fluorescence Cell-Free Homogeneous Dose Retest to Identify Inhibitors of RecA-Intein Splicing Activity. [Related pubchem assays (depositor defined):AID2097, AID2223, AID489010, AID492950]; type: functional
T4 sequence (P9WHJ3 whole entry): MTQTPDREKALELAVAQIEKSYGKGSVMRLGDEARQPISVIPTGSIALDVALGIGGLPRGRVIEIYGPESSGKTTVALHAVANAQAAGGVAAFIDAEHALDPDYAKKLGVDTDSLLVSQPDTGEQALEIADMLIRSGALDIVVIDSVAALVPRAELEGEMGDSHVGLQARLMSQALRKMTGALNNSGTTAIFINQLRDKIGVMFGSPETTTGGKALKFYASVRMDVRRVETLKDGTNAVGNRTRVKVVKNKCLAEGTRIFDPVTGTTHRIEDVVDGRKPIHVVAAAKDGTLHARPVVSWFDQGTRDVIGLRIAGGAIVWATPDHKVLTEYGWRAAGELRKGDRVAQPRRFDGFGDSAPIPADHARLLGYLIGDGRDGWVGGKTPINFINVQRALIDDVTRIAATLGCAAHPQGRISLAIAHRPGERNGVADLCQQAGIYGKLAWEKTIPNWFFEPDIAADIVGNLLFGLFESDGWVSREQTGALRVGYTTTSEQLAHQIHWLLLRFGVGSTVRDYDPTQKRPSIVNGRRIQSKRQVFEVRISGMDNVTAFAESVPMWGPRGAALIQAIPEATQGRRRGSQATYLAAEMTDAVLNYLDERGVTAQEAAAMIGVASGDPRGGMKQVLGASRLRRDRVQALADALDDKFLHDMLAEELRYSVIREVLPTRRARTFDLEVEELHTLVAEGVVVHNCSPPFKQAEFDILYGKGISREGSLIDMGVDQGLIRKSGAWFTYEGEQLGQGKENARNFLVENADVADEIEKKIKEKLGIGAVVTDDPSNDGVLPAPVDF

Genome polyprotein = Genome polyprotein (dengue virus type 2, UniProt P29990); test: flavivirus cap methylation enzyme inhibition – biochemical, confirmation dose response, primary screen (AID 588689); type: functional
Caspase-6 = molecular target: T5, Caspase-6 (Homo sapiens, UniProt P55212); test: inhibition of CASP6 peptide cleavage – biochemical, VEID-R110 fluorescence, cherry-pick, dose response (AID 720632)
T5 sequence (P55212 whole entry): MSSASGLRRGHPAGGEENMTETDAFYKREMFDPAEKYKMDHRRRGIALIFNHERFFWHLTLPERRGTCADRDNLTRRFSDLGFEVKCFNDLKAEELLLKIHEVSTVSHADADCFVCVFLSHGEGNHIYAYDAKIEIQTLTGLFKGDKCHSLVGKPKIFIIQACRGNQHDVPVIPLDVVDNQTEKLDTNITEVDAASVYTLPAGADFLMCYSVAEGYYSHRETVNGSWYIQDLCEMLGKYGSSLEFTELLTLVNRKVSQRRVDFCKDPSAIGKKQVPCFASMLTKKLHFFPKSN

[6] = nonselective StAR promoter luciferase inhibitors – cell-based, luminescence, luciferase reporter, counter-screen for LRH-1 inverse agonist project, dose response (AID 651969); type: functional
[7] = viability of uninfected HEp-2 cells – cell-based, HTS, cytotoxicity control for RSV inhibitor project, dose response (AID 2410); type: functional; details: human respiratory syncytial virus
[8] = molecular target: T6, Calpain-2 catalytic subunit (Sus scrofa, UniProt P43367); test: m-calpain protease blockers, concentration series – biochemical, fluorogenic peptide substrate, dose response (AID 1420); type: functional
T6 sequence (P43367 whole entry): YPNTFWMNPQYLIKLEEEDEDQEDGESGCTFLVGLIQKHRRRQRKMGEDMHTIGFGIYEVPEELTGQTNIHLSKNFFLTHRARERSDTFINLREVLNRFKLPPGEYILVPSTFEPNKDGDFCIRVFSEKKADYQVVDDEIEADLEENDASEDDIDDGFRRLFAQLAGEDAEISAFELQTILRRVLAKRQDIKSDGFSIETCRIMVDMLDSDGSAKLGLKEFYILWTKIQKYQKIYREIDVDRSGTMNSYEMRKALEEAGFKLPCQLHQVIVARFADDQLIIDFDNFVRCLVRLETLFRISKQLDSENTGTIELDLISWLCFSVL

Cysteine protease ATG4B = molecular target: T7, Cysteine protease ATG4B (Homo sapiens, UniProt Q9Y4P1); type: functional;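 further: Fluorescence-based dose-response confirmation assay measuring inhibition of ATG4B activity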
T7 sequence (Q9Y4P1 whole entry): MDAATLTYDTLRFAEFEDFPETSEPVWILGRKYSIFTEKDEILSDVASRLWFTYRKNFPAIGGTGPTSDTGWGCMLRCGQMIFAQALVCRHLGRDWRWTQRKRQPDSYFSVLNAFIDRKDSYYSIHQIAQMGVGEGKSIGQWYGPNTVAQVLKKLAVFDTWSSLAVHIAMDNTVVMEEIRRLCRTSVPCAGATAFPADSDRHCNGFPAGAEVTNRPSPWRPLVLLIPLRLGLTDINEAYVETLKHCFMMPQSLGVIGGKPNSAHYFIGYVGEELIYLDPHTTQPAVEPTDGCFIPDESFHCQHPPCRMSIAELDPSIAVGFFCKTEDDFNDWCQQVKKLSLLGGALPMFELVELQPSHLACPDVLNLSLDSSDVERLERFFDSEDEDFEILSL

Phospholipase A2 = Phospholipase A2 (Homo sapiens, UniProt P04054); type: functional;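 further: confirmatory dose-response counterscreen on phospholipase A2, testing hits that came from an ultra-high-throughput screen for ATG4B inhibitors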
Large T antigen = Large T antigen (Simian virus 40, UniProt P03070); type: functional, Betapolyomavirus macacae;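 further: Confirmatory-stage PubChem screen for compounds that inhibit SV40 T antigen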
Chain of Large T antigen (P03070 whole entry): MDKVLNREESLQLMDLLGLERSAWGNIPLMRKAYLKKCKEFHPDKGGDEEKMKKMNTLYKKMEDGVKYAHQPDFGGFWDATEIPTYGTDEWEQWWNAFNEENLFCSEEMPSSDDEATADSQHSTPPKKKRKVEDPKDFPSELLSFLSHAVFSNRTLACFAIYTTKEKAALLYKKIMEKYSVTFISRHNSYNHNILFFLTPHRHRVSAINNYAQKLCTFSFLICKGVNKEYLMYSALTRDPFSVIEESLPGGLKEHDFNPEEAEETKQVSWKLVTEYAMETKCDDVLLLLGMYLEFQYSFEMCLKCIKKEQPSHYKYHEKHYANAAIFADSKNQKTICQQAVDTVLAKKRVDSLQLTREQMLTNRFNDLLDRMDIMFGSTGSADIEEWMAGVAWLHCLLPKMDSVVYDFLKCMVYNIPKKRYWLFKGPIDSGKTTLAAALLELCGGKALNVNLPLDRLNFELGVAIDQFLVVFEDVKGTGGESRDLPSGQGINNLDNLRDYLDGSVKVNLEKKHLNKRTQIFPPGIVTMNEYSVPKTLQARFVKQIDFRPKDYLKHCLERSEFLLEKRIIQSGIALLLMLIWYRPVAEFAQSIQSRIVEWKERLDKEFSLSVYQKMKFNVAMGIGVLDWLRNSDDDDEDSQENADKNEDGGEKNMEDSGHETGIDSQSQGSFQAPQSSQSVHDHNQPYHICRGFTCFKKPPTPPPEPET

T2 sequence (P98170 whole entry): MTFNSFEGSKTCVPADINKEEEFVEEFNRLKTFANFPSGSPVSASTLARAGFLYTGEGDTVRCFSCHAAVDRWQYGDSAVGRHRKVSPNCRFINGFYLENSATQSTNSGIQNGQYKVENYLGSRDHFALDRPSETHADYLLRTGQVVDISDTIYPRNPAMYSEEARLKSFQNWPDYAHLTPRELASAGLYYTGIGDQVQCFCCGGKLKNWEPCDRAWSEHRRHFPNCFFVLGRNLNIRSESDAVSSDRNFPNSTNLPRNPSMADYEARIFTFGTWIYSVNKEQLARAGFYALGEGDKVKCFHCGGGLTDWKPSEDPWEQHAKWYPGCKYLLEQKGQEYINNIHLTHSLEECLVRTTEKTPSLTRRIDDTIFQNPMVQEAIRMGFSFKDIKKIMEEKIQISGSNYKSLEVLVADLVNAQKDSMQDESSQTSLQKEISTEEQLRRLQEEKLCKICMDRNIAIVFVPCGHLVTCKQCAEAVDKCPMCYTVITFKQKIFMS
Chain of Trypsin (P00761 whole entry): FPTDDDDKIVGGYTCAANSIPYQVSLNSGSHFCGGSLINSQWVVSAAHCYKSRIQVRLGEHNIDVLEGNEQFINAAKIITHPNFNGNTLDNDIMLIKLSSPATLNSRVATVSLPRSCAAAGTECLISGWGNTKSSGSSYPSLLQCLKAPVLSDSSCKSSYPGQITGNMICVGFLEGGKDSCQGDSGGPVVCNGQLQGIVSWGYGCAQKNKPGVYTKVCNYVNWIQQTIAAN
Chain of Phospholipase A2 (P04054 whole entry): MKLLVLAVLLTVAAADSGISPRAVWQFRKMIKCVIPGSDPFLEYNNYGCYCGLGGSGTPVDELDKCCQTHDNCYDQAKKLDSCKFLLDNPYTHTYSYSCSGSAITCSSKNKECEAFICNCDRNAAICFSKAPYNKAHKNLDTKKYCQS
Chain of Genome polyprotein (P29990 2492-3391 limits assumed): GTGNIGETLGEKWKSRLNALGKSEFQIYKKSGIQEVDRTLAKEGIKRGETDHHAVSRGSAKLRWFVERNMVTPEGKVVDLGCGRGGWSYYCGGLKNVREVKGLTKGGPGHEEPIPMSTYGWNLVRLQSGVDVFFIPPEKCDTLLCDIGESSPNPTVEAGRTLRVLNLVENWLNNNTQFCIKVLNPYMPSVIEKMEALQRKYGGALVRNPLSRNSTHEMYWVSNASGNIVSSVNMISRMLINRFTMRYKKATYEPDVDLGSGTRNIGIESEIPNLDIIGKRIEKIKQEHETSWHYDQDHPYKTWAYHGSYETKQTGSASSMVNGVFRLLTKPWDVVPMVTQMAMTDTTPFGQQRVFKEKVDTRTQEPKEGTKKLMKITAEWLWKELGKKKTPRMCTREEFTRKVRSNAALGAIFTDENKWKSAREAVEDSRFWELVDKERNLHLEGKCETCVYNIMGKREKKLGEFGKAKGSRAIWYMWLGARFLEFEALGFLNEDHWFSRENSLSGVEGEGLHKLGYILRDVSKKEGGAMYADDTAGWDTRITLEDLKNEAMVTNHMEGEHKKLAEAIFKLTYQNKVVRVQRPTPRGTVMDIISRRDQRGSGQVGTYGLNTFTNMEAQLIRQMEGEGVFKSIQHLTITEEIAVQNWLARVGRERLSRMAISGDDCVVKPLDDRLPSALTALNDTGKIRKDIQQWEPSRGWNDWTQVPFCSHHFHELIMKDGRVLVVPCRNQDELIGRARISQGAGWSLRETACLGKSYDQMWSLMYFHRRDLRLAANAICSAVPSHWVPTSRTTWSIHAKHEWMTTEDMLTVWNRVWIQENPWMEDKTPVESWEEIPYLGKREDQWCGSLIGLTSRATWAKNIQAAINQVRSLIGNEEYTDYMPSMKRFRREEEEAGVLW

Structure (SMILES): O=S(=O)(c1ccc2nc(Nc3ccccc3)ccc2c1)N1CCCCC1
- AC50 [1]: 6.53 µM (active)
- AC50 (INS1): 12.2 µM (active)

Structure (SMILES): CCOc1ccccc1N1CCN(C(=O)c2cccc(-c3ccc(O)cc3)c2)CC1
- IC50 [2]: > 100 µM (inactive)
- IC50 [3]: > 100 µM (not active)
- AC50 [4]: 3.3 µM (active)

Structure (SMILES): O=C(Nc1ccccc1)n1ccc(-c2ccc(-n3ccnc3)cc2)n1
- AC50 (Trypsin): 17.9 µM (active)

Structure (SMILES): COc1ccc2nc3cccc(OC)c3nc2c1
- AC50 [5]: > 380 µM (inactive)
- EC50 (Protein RecA): 20.8 µM (active)
- IC50 (Genome polyprotein): > 100 µM (active)
- AC50 (Caspase-6): 23.1 µM (active)

Structure (SMILES): CCc1c(C)nc(SCC(=O)Nc2ccc3c(c2)OCCO3)nc1O
- IC50 [6]: 35.9 µM (inactive)

Structure (SMILES): CC(C)(C)c1nc(SCC(=O)c2ccccc2)c2ccccc2n1
- CC50 [7]: 39.5 µM (active)
- IC50 [8]: > 50 µM (not active)
- IC50 (Cysteine protease ATG4B): 15.8 µM (active)
- IC50 (Phospholipase A2): 10.1 µM (active)

Structure (SMILES): CCOC(=O)c1c(C)n(C)c2ccc(O)c(S(=O)(=O)c3ccccc3)c12
- AC50 [1]: 9.92 µM (active)

Structure (SMILES): CCOc1ccc(NC(=NCc2ccc3c(c2)OCO3)SC2CC(=O)N(c3ccc(C(=O)O)cc3)C2=O)cc1 (centres undefined)
- CC50 [7]: 22.8 µM (active)
- IC50 (cells): 15.6 µM (active)

Structure (SMILES): O=S(=O)(Nc1ccc(O)cc1)c1cccc2cccnc12
- IC50 (Large T antigen): 7.36 µM (active)

Structure (SMILES): CCn1c(=O)c2cc(C(=O)N(C)c3cc(C)ccc3OC)sc2c2ccccc21
- CC50 [7]: 21.2 µM (active)
- IC50 (cells): 21.5 µM (active)

Structure (SMILES): CCC(C)N=C(S)N1CCN(C)CC1 (centres undefined)
- AC50 [1]: 26.5 µM (active)

Structure (SMILES): COc1ccccc1-c1sc2cc3c(cc2c1-c1ccc(O)cc1)OCO3
- AC50 [4]: 8.22 µM (active)

Structure (SMILES): CC(=N)/C(C#N)=C(/O)COC(=O)c1ccncc1
- IC50 (cells): 1.14 µM (active)
